Data as given in publication PMC6509125, “The selective disruption of presynaptic JNK2/STX1a interaction reduces NMDA receptor-dependent glutamate release” (Scientific Reports, 2019).

Key:
Format in all cases: cell-based, mouse
[1] = tested on: presynaptic NMDA receptors; assay: mEPSC whole cell patch clamp recordings in entorhinal cortex slices; settings: TTX 1 µM, PTX 100 µM, MK-801 10 µM in pipette; n = 8
[2] = tested on: p54-JNK; assay: p54-JNK phosphorylation, western blot of cortical synaptosomes; settings: mean ± s.e.m.; for p54-JNK phosphorylation vs. control, stimulus alone: NMDA 100 µM + glycine 1 µM 10 min or KCl 8 mM 90 s (Fig. 1A), n = 6
[3] = tested on: p46-JNK; assay: p46-JNK phosphorylation, western blot of cortical synaptosomes; settings: NMDA 100 µM + glycine 1 µM 10 min or KCl 8 mM 90 s (Fig. 1A); n = 6
[4] = tested on: STX1a (Ser14 p-STX1a); assay: STX1a Ser14 phosphorylation, western blot of cortical synaptosomes; settings: mean ± s.e.m.; for Ser14 p-STX1a levels vs. control = 1, stimulus alone: NMDA 100 µM + glycine 1 µM 10 min or KCl 8 mM 90 s (Fig. 1B), n = 6
[5] = tested on: SNARE complex; assay: SNARE complex formation assay in cortical synaptosomes; settings: NMDA 100 µM + glycine 1 µM 10 min alone; mean ± s.e.m., n = 4
[6] = tested on: NMDA-evoked exocytosis, cortical synaptosomes; assay: Synaptic vesicle release, FM1-43 destaining in cortical synaptosomes; settings: NMDA 100 µM + glycine 1 µM, 0 µM JGRi1; mean ± s.e.m., n = 5

SMILES | mEPSC amplitude, vehicle vs. D-AP5 [1] | mEPSC inter-event interval (iei), vehicle vs. D-AP5 [1] | p54-JNK phosphorylation vs. control, stimulus alone [2] | p46-JNK phosphorylation, stimulus alone [3] | Ser14 p-STX1a levels vs. control = 1, stimulus alone [4] | p54-JNK phosphorylation vs. control = 1, stimulus alone ([2]; NMDA 100 µM + glycine 1 µM 10 min alone (Fig. 4A), n = 7) | STX1a phosphorylation vs. control = 1, stimulus alone ([4]; NMDA 100 µM + glycine 1 µM 10 min alone (Fig. 4B), n = 7) | SNARE complex formation vs. control = 1, stimulus alone [5] | NMDA-induced release of fluorescent dye FM1-43, stimulus alone [6]
NC(CCCP(=O)(O)O)C(=O)O [D-AP5] | unaffected | induced an increase of iei |  |  |  |  |  |  | 
[Cl-].[K+] [KCl] |  |  | not by KCl stimulus | unchanged | 1.22 ± 0.11 |  |  |  | 
CN[C@H](CC(=O)O)C(=O)O [NMDA, N-methyl-D-aspartate] |  |  | 1.58 ± 0.12 | unchanged | 1.38 ± 0.07 | 1.54 ± 0.12 | 1.51 ± 0.13 | 1.85 ± 0.06 | 68% ± 10
